Patent publication US11702422B2, “Imidazopyridazines as modulators of IL-17” (Janssen Pharmaceutica NV, priority 2020, dated 2023)

Key:
[1] = test system: IL-17A-induced G-CSF production in human normal keratinocyte (NHK); test: NHK Assay: IL-17A-induced G-CSF production in human normal keratinocytes; format: cell-based; conditions: 24 h, adult normal human keratinocytes, IL-17A 5 ng/mL, simple average if tested more than once
Protocol: IL-17A acts directly on keratinocytes through binding to dimeric receptor IL-17RA/RC and drives the production of a number of inflammatory mediators known to be elevated in psoriasis lesional tissue. IL-17A small molecule inhibitors that block the IL-17A to interact with IL-17R would inhibit the IL-17A signaling in its targeted cells such as keratinocytes. The compound functional activity is evaluated for its impact on IL-17A-induced G-CSF production in human normal keratinocyte (NHK).
Adult normal human keratinocytes are cultured in keratinocyte growth medium (Lonza) in a flask till reaching ˜ 90% confluence, then cells are transferred to a 384-well plate at density of 3000-4000 cell/well. Recombinant human IL-17A (Gibco PHC9174) is pre-incubated with titrated compound or DMSO for 1 h at rt then added to the cell culture plate. The final concentration of IL-17A is 5 ng/mL and DMSO is 0.2%, in the culture containing 5% FBS. Cells are cultured/treated for 24 h at 37° C. Supernatants are collected and G-CSF production is measured through HTRF technology using Human G-CSF Kit (CisBio). G-CSF concentration was extrapolated from the standard curve and IC50 is determined using GraphPad Prism. Cell viability is also evaluated using CellTiter-Glo kit (Promega) and effect of compound on cell viability is compared to DMSO control.

[2] = target: IL-17A(FLAG-Tagged): IL-17RA(His-Tagged) (Homo sapiens, UniProt Q16552, K93Q); test: IL-17A(FLAG-Tagged): IL-17RA(His-Tagged) Binding Disruption Eu-HTRF Assay; conditions: IL-17A/IL-17RA binding disruption, simple average if tested more than once
Sequence of UniProt Q16552 (Q16552 with tags, fused parts or gaps K93Q): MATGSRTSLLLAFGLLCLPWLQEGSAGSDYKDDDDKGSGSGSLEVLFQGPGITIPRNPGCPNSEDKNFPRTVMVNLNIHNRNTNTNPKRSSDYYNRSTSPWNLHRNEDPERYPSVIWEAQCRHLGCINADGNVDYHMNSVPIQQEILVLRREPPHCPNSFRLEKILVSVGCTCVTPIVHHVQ
From the text: IL-17A(FLAG-Tagged): IL-17RA(His-Tagged) Binding Disruption Eu-HTRF Assay
An antibody directed against the FLAG tag of IL-17A (SEQ ID NO:1) is labeled with the HTRF donor chromophore (Europium-cryptate). IL-17A is present as a dimer that is “locked into” this quaternary structure due to the formation of loop-spanning […] disulfide bridges. The construct of IL-17RA used in the assay excludes the […] portion of the receptor and is fused to a C-terminal 10×His tag (SEQ ID NO:2). An antibody directed against the His tag of the IL-17RA chimera is labeled with the HTRF acceptor chromophore (“D2”). The fluorescence-resonance energy transfer (FRET) depends on the vicinity of the donor chromophore to the acceptor, and interruption of the binding between the IL-17A and IL-17RA causes the reduction/loss of FRET. Therefore, this assay allows to evaluate the compound effect on the binding IL-17A and IL-17RA by monitoring the fluorescence intensity of donor vs acceptor. The assay is run as described below.
40 nl of 2-fold serial diluted compound solution for total 22 dilution points is added into each well of a 1536-well, white, low-volume, non-binding plate (Greiner #782904), then 2 μl of FLAG tagged IL-17A at 2× final concentration (2.5 nM) in solution of PBS+0.01% Triton-X100 is added to each well. The assay plate is briefly centrifuged then incubated for 1 h at rt. A mixed solution is prepared containing 2×5 nM 10HIS×IL-17RA, 2×2.5 nM Eu-anti-FLAG (CISBIO), 2×5 nM D2-anti-HIS (CISBIO) in PBS+0.01% Triton-X100+200 mM Potassium Fluoride (Sigma 60238) and 2 μl of mix is added to each well of the assay plate. The plate is briefly centrifuged then incubated for 2 h at rt. The HTRF intensities at the wavelength of donor (620 nm) and acceptor (665 nm) are measured using BMG Pherastar. The ratio between intensities at two wavelengths is calculated and plotted against the compound concentration and the data is fitted to a one-site competition model to yield IC50 of the compound.

Structure (SMILES) | IC50 ([1]; Homo sapiens, Keratinocyte) | IC50 [2] | IC50 [1]
O=C(CCC(F)(F)F)N[C@@H](c1cnn2cc([C@@H](NC(=O)c3cc(C(F)(F)F)ccn3)C3CCC(F)(F)CC3)nc2c1)C1CC1 [Example 198, N—((S)-(7-((R)-Cyclopropyl(4,4,4-trifluorobutanamido)methyl)imidazo[1,2-b]pyridazin-2-yl)(4,4-difluorocyclohexyl)methyl)-4-(trifluoromethyl)picolinamide] | 1800 nM | 410 nM | 
Cc1oncc1C(=O)N[C@H](c1cn2ncc([C@H](NC(=O)CCC(F)(F)F)C3CC3)cc2n1)C1CCC(F)(F)CC1 [Example 159, N—((S)-(7-((R)-Cyclopropyl(4,4,4-trifluorobutanamido)methyl)imidazo[1,2-b]pyridazin-2-yl)(4,4-difluorocyclohexyl)methyl)-5-methylisoxazole-4-carboxamide] | 260 nM | 100 nM | 
CC(C)n1nccc1C(=O)N[C@H](c1cn2ncc(C(CC3CCC3)NC(=O)CC3CC(F)(F)C3)cc2n1)C1CCC(F)(F)CC1 (single isomer, unassigned) [Example 441, N—((S)-(7-((S*)-2-Cyclobutyl-1-(2-(3,3-difluorocyclobutyl)acetamido)ethyl)imidazo[1,2-b]pyridazin-2-yl)(4,4-difluorocyclohexyl)methyl)-1-isopropyl-1H-pyrazole-5-carboxamide] |  |  | 1100 nM
Cc1nonc1C(=O)N[C@H](c1cn2ncc(C(NC(=O)CC3CC(F)(F)C3)C(C)(C)O)cc2n1)C1CCC(F)(F)CC1 (single isomer, unassigned) [Example 443, N—((S)-(7-((S*)-1-(2-(3,3-Difluorocyclobutyl)acetamido)-2-hydroxy-2-methylpropyl)imidazo[1,2-b]pyridazin-2-yl)(4,4-difluorocyclohexyl)methyl)-4-methyl-1,2,5-oxadiazole-3-carboxamide] |  |  | 520 nM
CC(C)n1nccc1C(=O)N[C@H](c1cn2ncc(C(NC(=O)CC3CC(F)(F)C3)C(F)F)cc2n1)C1CCC(F)(F)CC1 (single isomer, unassigned) [Example 420, N—((S)-(7-((R*)-1-(2-(3,3-Difluorocyclobutyl)acetamido)-2,2-difluoroethyl)imidazo[1,2-b]pyridazin-2-yl)(4,4-difluorocyclohexyl)methyl)-1-isopropyl-1H-pyrazole-5-carboxamide] |  |  | 4100 nM
Cc1nonc1C(=O)N[C@H](c1cn2ncc(C(NC(=O)CCC(F)(F)F)C(F)F)cc2n1)C1CCC(F)(F)CC1 (single isomer, unassigned) [Example 515, N—((S)-(7-((S*)-2,2-Difluoro-1-(4,4,4-trifluorobutanamido)ethyl)imidazo[1,2-b]pyridazin-2-yl)(4,4-difluorocyclohexyl)methyl)-4-methyl-1,2,5-oxadiazole-3-carboxamide] |  |  | 140 nM
CC(C)n1nccc1C(=O)N[C@H](c1cn2ncc(C(NC(=O)CC3CC(F)(F)C3)C(C)(C)O)cc2n1)C1CCC(F)(F)CC1 (single isomer, unassigned) [Example 442, N—((S)-(7-((S*)-1-(2-(3,3-Difluorocyclobutyl)acetamido)-2-hydroxy-2-methylpropyl)imidazo[1,2-b]pyridazin-2-yl)(4,4-difluorocyclohexyl)methyl)-1-isopropyl-1H-pyrazole-5-carboxamide] |  |  | 600 nM
CC(C)(C)Oc1nonc1C(=O)N[C@H](c1cn2ncc([C@H](NC(=O)CC3CC(F)(F)C3)C3CC3)cc2n1)C1CCC(F)(F)CC1 [Example 392, 4-(tert-Butoxy)-N—((S)-(7-((R)-cyclopropyl(2-(3,3-difluorocyclobutyl)acetamido)methyl)imidazo[1,2-b]pyridazin-2-yl)(4,4-difluorocyclohexyl)methyl)-1,2,5-oxadiazole-3-carboxamide] | 37 nM |  | 
Cc1nonc1C(=O)N[C@H](c1cn2ncc([C@H](NC(=O)CCCC#N)C3CC3)cc2n1)C1CCC(F)(F)CC1 [Example 351, N—((S)-(7-((R)-(4-Cyanobutanamido)(cyclopropyl)methyl)imidazo[1,2-b]pyridazin-2-yl)(4,4-difluorocyclohexyl)methyl)-4-methyl-1,2,5-oxadiazole-3-carboxamide] |  | 2600 nM | 
CC(C)c1ncsc1C(=O)N[C@H](c1cn2ncc([C@H](NC(=O)CCC(F)(F)F)C3CC3)cc2n1)C1CCC(F)(F)CC1 [Example 464, N—((S)-(7-((R)-Cyclopropyl(4,4,4-trifluorobutanamido)methyl)imidazo[1,2-b]pyridazin-2-yl)(4,4-difluorocyclohexyl)methyl)-4-isopropylthiazole-5-carboxamide] | 630 nM |  | 
O=C(CCC(F)(F)F)N[C@@H](c1cnn2cc([C@@H](NC(=O)c3nonc3CN3CC(F)(F)C3)C3CCC(F)(F)CC3)nc2c1)C1CC1 [Example 387, N—((S)-(7-((R)-Cyclopropyl(4,4,4-trifluorobutanamido)methyl)imidazo[1,2-b]pyridazin-2-yl)(4,4-difluorocyclohexyl)methyl)-4-((3,3-difluoroazetidin-1-yl)methyl)-1,2,5-oxadiazole-3-carboxamide] | 72 nM |  | 
O=C(CC1CC(F)(F)C1)NC(c1cnn2cc([C@@H](NC(=O)c3nonc3C3CC3)C3CCC(F)(F)CC3)nc2c1)C(F)F (single isomer, unassigned) [Example 518, 4-Cyclopropyl-N—((S)-(7-((R*)-1-(2-(3,3-difluorocyclobutyl)acetamido)-2,2-difluoroethyl)imidazo[1,2-b]pyridazin-2-yl)(4,4-difluorocyclohexyl)methyl)-1,2,5-oxadiazole-3-carboxamide] |  |  | 2900 nM
CC(C)c1oncc1C(=O)N[C@H](c1cn2ncc([C@H](NC(=O)CCC(F)(F)F)C3CC3)cc2n1)C1CCC(F)(F)CC1 [Example 482, N—[(S)-[7-[(R)-Cyclopropyl-(4,4,4-trifluorobutanamido)methyl]imidazo[1,2-b]pyridazin-2-yl]-(4,4-difluorocyclohexyl)methyl]-5-isopropyl-isoxazole-4-carboxamide] |  |  | 76 nM
CC(C)c1nnsc1C(=O)N[C@H](c1cn2ncc([C@H](NC(=O)CCC(F)(F)F)C3CC3)cc2n1)C1CCC(F)(F)CC1 [Example 481, N—[(S)-[7-[(R)-Cyclopropyl-(4,4,4-trifluorobutanamido)methyl]imidazo[1,2-b]pyridazin-2-yl]-(4,4-difluorocyclohexyl)methyl]-4-isopropyl-thiadiazole-5-carboxamide] | 470 nM |  | 
Cc1nonc1C(=O)N[C@H](c1cn2ncc([C@H](NC(=O)[C@H]3CNC[C@@H]3C(F)(F)F)C3CC3)cc2n1)C1CCC(F)(F)CC1 (relative stereo) [Example 355, N—((S)-(7-((R)-Cyclopropyl((trans-3R*,4R*)-4-(trifluoromethyl)pyrrolidine-3-carboxamido)methyl)imidazo[1,2-b]pyridazin-2-yl)(4,4-difluorocyclohexyl)methyl)-4-methyl-1,2,5-oxadiazole-3-carboxamide] |  | 19000 nM | 
O=C(CCC(F)(F)F)NC(c1cnn2cc([C@@H](NC(=O)c3ccccc3)C3CCC(F)(F)CC3)nc2c1)C1CC1 (single isomer, unassigned) [Example 13, N—((S)-(7-((S*)-Cyclopropyl(4,4,4-trifluorobutanamido)methyl)imidazo[1,2-b]pyridazin-2-yl)(4,4-difluorocyclohexyl)methyl)benzamide] |  | 7600 nM | 
